The numbers were not newly measured in patent US20230332232A1, “COMPOSITIONS AND METHODS FOR DIAGNOSING AND TREATING A DYSTONIA” (Duke University, priority 2020, published 2023), which cites them from elsewhere.

One series concerns ΔE Torsin1a. The settings on record: ΔE Torsin1a abnormal punctate pattern; cited from earlier work.
Series [1] concerns DYT1 patient-derived fibroblasts. The settings on record: cited from earlier work.

`O=C(O)CCCc1ccccc1` [PBA, phenylbutyric acid]: the punctate pathology result in the series with ΔE Torsin1a is reported as “significantly reduced punctate pathology”. Moreover, in series [1], the “indicators of UPR activation” value is recorded as “reduces indicators of UPR activation”.
